In ChEMBL document CHEMBL5365447, “Pronucleotides of 2',3'-Dideoxy-2',3'-Didehydrothymidine as Potent Anti-HIV Compounds” (J Med Chem, 2023):

Columns and labels:
[1] = tested on: Human immunodeficiency virus 2; experiment: Antiviral activity against HIV-2 ROD infected in wild-type human CEM/0 cells assessed as inhibition of virus-induced cytopathic effect incubated for 4 to 5 days by light microscopic analysis; assay type: functional, organism-based; conditions: Human immunodeficiency virus 2, ROD, CCRF-CEM
[2] = Cytotoxicity against human CEM cells assessed as reduction in cell viability incubated for 4 to 5 days by light microscopic analysis; assay type: toxicity, cell-based; conditions: CEM cells (CCRF-CEM), time 4-5 day
[3] = Prodrug conversion in pH 7.3 phosphate buffer assessed as metabolite formation by measuring half life in presence of pig liver esterase by HPLC analysis; assay type: ADME; conditions: isolated protein
[4] = tested on: Human immunodeficiency virus 1; experiment: Antiviral activity against HIV-1 HE infected in wild-type human CEM/0 cells assessed as inhibition of virus-induced cytopathic effect incubated for 4 to 5 days by light microscopic analysis; assay type: functional, organism-based; conditions: Human immunodeficiency virus 1, HE, CCRF-CEM
[5] = tested on: Human immunodeficiency virus 2; experiment: Antiviral activity against HIV-2 ROD infected in thymidine kinase-deficient human CEM cells assessed as inhibition of virus-induced cytopathic effect incubated for 4 to 5 days by light microscopic analysis; assay type: functional, organism-based; conditions: Human immunodeficiency virus 2, ROD, CCRF-CEM
[6] = Retention time of the compound by HPLC analysis; assay type: physicochemical
[7] = Chemical stability of the compound in phosphate buffer saline assessed as half life at pH 7.3 by HPLC analysis; assay type: physicochemical; conditions: phosphate buffered saline
[8] = Prodrug conversion in human CEM/0 cell extract assessed as metabolite formation by measuring half life by HPLC analysis; assay type: ADME; conditions: ccrf-cem
[9] = Selectivity index, ratio of CC50 for human CEM cells to EC50 for HIV-2 ROD infected in thymidine kinase-deficient human CEM cells; assay type: toxicity; conditions: read-out: Ratio CC50/EC50

EC50 [1] [nM] | t1/2 [3] [h] | EC50 [4] [nM] | EC50 [5] [nM] | Retention_time [6] [min] | half-life [7] [days] | t1/2 [8] [h] | SMILES | CC50 [2] [nM] | selectivity ratio [9] | Drug metabolism [3] | Drug metabolism [8]
360 | < 0.01 | 390 | 1390 | 16.6 | 11.9 | 1.1 | CCCCCCCCCCCCOP(=O)(OCc1ccc(OC(=O)CCCC)cc1)OP(=O)(O)OC[C@@H]1C=C[C@H](n2cc(C)c(=O)[nH]c2=O)O1.N (stereo not given in full) | > 100000 | > 72 |  | 
120 | 0.67 | 120 | 48 | 20.9 | 15.5 | 4.5 | CCCCCCCCCCCCOP(=O)(OCc1ccc(OC(=O)CCCCCCCCCCC)cc1)OP(=O)(O)OC[C@@H]1C=C[C@H](n2cc(C)c(=O)[nH]c2=O)O1.N (stereo not given in full) | 48400 | 1010 |  | 
170 | < 0.01 | 440 | 19200 | 12.5 | 5.46 | 0.36 | CCCCOP(=O)(OCc1ccc(OC(=O)CCCC)cc1)OP(=O)(O)OC[C@@H]1C=C[C@H](n2cc(C)c(=O)[nH]c2=O)O1.N (stereo not given in full) | > 100000 | > 5 |  | 

SMILES | EC50 [1] [nM] | t1/2 [3] [h] | EC50 [4] [nM] | EC50 [5] [nM] | Retention_time [6] [min] | half-life [7] [days] | t1/2 [8] [h] | CC50 [2] [nM] | selectivity ratio [9] | Drug metabolism [3] | Drug metabolism [8]
CCCCCCCCCCCCCCCCCCP(=O)(OCc1ccc(OC(=O)CCCC)cc1)OP(=O)(O)OC[C@@H]1C=C[C@H](n2cc(C)c(=O)[nH]c2=O)O1.N (stereo not given in full) | 42 | 0.25 | 44 | 2 | 20 | > 83.3 | > 8 | 14600 | 7290 |  | 
CCCCCCCCCCCCP(=O)(OCc1ccc(OC(=O)CCCC)cc1)OP(=O)(O)OC[C@@H]1C=C[C@H](n2cc(C)c(=O)[nH]c2=O)O1.N (stereo not given in full) | 420 |  | 560 | 760 | 16.3 | 29.2 |  | 66700 | 88 | Metabolite_Notdetected | Metabolite_Notdetected
